Measured values: ChEMBL document CHEMBL3351491, “Synthesis and preliminary biological evaluation of potent and selective 2-(3-alkoxy-1-azetidinyl) quinolines as novel PDE10A inhibitors with improved solubility” (Bioorg Med Chem, 2014)

How the values were obtained:
Format in all cases: ADME, organism-based
[1] = Clearance in Sprague-Dawley rat; settings: in vivo
[2] = Volume of distribution at steady state in Sprague-Dawley rat at 2 mg/kg, iv; set-up: dose 2 mg/kg, route intravenous; settings: in vivo, read-out: Vdss
[3] = Half life in Sprague-Dawley rat at 2 mg/kg, iv; set-up: dose 2 mg/kg, route intravenous; settings: in vivo
[4] = Oral bioavailability in Sprague-Dawley rat at 10 mg/kg; settings: in vivo
[5] = AUC (0 to infinity) in Sprague-Dawley rat at 10 mg/kg, po; set-up: time infinity, dose 10 mg/kg, route oral; settings: plasma

clearance [1]	Vd [2]	half-life [3]	bioavailability [4]	AUC(0-inf) [5]	SMILES
61.3 mL/min/kg	4.81 L/kg	6.42 h	18%		OCC1CCN(c2nccnc2OC2CN(c3ccc4ccccc4n3)C2)CC1
16 mL/min/kg	1.55 L/kg	3.64 h	62%	17.4 ng·h/mL	CC(=O)N1CCC(c2nccnc2OC2CN(c3ccc4ccccc4n3)C2)CC1
9.5 mL/min/kg	1.55 L/kg	2.35 h	57%	27.9 ng·h/mL	CC(=O)N1CCC(c2nc3ccccc3nc2OC2CN(c3ccc4ccccc4n3)C2)CC1
